Assay results: ChEMBL document CHEMBL1157914, “5,5'-substituted indirubin-3'-oxime derivatives as potent cyclin-dependent kinase inhibitors with anticancer activity” (J Med Chem, 2010)
Active and inactive are the calls of the source. No cut-off for these calls is given here.

Experiments:
[1] = tested on: SNU-638; experiment: Antiproliferative activity against human SNU638 cells after 3 days by SRB assay; type: functional, cell-based; details: SNU-638, 72 h
[2] = tested on: HT-1080; experiment: Antiproliferative activity against human HT1080 cells after 3 days by SRB assay; type: functional, cell-based; details: HT-1080, 72 h
[3] = tested on: A549; experiment: Antiproliferative activity against human A549 cells after 3 days by SRB assay; type: functional, cell-based; details: A549, 72 h
[4] = tested on: K562; experiment: Antiproliferative activity against human K562 cells after 3 days by SRB assay; type: functional, cell-based; details: K562, 72 h
[5] = tested on: KB; experiment: Antiproliferative activity against human KB cells after 3 days by SRB assay; type: functional, cell-based; details: 72 h
[6] = molecular target: Cyclin-dependent kinase 2/cyclin E1 (Homo sapiens) (UniProt P24864+P24941); experiment: Inhibition of CDK2/cyclin E as percent residual activity; type: protein-complex assay; set-up: Residual activity / inhibition: concentration or dose not given beside the values
[7] = tested on: MCF7; experiment: Antiproliferative activity against human MCF7 cells after 3 days by SRB assay; type: functional, cell-based; details: MCF7, 72 h
[8] = Selectivity ratio for CDK2/cyclinE over CDK1/cyclin B
[9] = molecular target: Cyclin-dependent kinase 2/cyclin E1 (Homo sapiens, UniProt P24941); experiment: Inhibition of CDK2/cyclin E; type: protein-complex assay
[10] = Antiproliferative activity against human […] cells after 3 days by SRB assay; type: functional, cell-based; details: 72 h
[11] = molecular target: Cyclin-dependent kinase 1/cyclin B1 (Homo sapiens) (UniProt P06493+P14635); experiment: Inhibition of CDK1/cyclin B at 1 uM after 40 mins by lequid scintillation counting; type: protein-complex assay
Sequence of Cyclin-dependent kinase 1/cyclin B1 (Homo sapiens) (P06493 whole entry, looked up): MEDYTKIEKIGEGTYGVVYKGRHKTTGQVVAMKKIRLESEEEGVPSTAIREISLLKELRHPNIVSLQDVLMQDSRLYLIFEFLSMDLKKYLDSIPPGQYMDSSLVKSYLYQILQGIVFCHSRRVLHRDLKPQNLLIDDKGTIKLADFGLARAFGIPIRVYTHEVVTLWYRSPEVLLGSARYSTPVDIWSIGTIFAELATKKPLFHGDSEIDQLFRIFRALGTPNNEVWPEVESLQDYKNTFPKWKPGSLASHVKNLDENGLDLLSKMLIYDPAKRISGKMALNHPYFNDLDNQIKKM
Sequence of Cyclin-dependent kinase 1/cyclin B1 (Homo sapiens) (P14635 whole entry, looked up): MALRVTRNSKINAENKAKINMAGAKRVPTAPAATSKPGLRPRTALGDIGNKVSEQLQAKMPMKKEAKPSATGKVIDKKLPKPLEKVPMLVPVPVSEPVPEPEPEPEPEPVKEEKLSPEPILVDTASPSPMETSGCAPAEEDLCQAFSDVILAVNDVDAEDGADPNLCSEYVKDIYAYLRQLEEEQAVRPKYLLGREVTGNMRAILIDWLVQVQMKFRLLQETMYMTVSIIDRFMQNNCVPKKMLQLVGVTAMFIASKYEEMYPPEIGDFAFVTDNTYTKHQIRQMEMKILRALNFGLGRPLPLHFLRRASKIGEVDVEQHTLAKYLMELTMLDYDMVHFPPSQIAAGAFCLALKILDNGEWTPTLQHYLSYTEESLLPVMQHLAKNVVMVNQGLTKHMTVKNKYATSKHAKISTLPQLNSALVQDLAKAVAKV

[12] = molecular target: Insulin receptor (Homo sapiens) (UniProt P06213); experiment: Inhibition of insulin receptor at 10 uM preincubated for 15 mins by HTRF assay
[13] = molecular target: High affinity nerve growth factor receptor (Homo sapiens, UniProt P04629); experiment: Inhibition of recombinant TrKa at 10 uM preincubated for 15 mins by HTRF assay
[14] = molecular target: Phosphatidylinositol 4,5-bisphosphate 3-kinase catalytic subunit gamma isoform (Homo sapiens) (UniProt P48736); experiment: Inhibition of human PI3Kgamma at 10 uM preincubated for 15 mins by HTRF assay
Sequence of Phosphatidylinositol 4,5-bisphosphate 3-kinase catalytic subunit gamma isoform (Homo sapiens) (P48736 whole entry, looked up, canonical isoform): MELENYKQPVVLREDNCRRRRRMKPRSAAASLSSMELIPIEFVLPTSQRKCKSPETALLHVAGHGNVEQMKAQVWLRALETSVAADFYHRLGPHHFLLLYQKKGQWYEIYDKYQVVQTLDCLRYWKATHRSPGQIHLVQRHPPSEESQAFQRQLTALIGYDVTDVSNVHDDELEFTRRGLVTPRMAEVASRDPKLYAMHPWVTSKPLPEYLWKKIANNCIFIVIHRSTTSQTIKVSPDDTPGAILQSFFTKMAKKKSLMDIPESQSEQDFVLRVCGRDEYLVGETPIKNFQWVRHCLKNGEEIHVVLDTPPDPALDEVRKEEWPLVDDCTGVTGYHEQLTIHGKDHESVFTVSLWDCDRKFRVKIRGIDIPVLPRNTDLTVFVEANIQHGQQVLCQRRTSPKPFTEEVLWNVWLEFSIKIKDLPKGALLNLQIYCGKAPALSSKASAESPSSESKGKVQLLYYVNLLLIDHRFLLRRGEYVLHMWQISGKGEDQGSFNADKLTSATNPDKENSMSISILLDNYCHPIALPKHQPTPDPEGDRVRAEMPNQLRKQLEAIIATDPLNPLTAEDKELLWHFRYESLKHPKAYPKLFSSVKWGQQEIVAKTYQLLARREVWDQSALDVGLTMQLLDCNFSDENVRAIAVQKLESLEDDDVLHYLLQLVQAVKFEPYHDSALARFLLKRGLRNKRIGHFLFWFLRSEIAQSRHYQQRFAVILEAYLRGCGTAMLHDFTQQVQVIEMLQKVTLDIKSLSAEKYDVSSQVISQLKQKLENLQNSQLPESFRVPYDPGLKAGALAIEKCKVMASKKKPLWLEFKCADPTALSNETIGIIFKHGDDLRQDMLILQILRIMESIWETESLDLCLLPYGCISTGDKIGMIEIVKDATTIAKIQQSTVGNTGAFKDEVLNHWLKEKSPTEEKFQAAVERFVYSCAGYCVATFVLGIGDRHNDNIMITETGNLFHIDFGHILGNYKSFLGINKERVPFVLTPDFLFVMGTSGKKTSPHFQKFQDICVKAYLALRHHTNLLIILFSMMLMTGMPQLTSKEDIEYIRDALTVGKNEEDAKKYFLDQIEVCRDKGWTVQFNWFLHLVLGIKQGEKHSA

[15] = molecular target: Macrophage-stimulating protein receptor (Homo sapiens) (UniProt Q04912); experiment: Inhibition of recombinant Ron at 10 uM preincubated for 15 mins by HTRF assay
[16] = molecular target: Inhibitor of nuclear factor kappa-B kinase subunit beta (Homo sapiens) (UniProt O14920); experiment: Inhibition of recombinant IKK-beta at 10 uM preincubated for 15 mins by HTRF assay
[17] = molecular target: Vascular endothelial growth factor receptor 2 (Homo sapiens) (UniProt P35968); experiment: Inhibition of recombinant VEGFR2 at 10 uM preincubated for 15 mins by HTRF assay
Sequence of Vascular endothelial growth factor receptor 2 (Homo sapiens) (P35968 whole entry): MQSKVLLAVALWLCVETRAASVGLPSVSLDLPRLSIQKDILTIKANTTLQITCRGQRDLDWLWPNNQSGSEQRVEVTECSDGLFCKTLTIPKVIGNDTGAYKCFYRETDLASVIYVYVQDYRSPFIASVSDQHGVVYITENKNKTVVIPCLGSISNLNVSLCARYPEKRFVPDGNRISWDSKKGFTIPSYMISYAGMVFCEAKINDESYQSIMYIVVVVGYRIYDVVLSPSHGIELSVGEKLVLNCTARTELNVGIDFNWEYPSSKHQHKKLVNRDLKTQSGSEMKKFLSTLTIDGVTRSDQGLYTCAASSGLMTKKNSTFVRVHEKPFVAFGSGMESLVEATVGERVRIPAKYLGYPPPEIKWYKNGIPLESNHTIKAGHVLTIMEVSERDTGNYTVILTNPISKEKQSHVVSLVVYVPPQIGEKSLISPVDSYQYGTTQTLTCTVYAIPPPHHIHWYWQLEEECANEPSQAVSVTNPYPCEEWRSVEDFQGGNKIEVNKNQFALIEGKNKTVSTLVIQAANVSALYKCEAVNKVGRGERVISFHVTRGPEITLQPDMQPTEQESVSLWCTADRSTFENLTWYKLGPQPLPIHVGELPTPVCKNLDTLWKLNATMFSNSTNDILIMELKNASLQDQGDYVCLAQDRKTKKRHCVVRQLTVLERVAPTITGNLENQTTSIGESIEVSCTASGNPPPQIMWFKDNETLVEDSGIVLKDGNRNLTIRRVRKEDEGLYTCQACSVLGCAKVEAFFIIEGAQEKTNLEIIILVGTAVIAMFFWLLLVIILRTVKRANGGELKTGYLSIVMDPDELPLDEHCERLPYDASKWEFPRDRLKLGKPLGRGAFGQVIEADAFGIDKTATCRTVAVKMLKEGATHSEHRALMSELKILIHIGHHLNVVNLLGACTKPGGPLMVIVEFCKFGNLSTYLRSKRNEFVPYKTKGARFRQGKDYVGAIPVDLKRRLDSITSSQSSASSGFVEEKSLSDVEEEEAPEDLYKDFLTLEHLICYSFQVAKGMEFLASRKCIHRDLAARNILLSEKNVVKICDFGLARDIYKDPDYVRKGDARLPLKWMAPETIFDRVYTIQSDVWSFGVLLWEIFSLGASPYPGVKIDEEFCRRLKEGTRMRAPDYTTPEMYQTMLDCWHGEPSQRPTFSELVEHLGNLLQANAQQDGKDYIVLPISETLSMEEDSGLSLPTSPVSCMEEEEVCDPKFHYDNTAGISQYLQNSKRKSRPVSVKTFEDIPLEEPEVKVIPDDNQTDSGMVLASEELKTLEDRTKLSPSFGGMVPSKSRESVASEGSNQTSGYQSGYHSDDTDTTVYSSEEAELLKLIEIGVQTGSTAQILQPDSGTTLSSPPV

[18] = molecular target: Aurora kinase A (Homo sapiens) (UniProt O14965); experiment: Inhibition of recombinant auroraA at 10 uM preincubated for 15 mins by HTRF assay
Sequence of Aurora kinase A (Homo sapiens) (O14965 whole entry): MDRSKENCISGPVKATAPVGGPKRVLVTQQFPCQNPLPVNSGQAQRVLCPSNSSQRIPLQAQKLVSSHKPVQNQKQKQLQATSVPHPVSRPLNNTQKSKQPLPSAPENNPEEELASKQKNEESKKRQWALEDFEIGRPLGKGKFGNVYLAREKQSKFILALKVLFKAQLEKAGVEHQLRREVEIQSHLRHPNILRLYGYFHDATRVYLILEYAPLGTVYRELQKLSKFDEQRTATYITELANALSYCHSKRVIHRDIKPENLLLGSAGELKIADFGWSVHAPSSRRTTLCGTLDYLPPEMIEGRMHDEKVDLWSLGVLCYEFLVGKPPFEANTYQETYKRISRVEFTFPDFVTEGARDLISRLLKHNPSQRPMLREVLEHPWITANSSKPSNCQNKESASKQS

[19] = molecular target: Hepatocyte growth factor receptor (Homo sapiens) (UniProt P08581); experiment: Inhibition of recombinant c-met at 10 uM preincubated for 15 mins by HTRF assay
[20] = tested on: Hepatocyte growth factor receptor (Homo sapiens), P08581 [M1250T]; experiment: Inhibition of recombinant Met M1250T mutant at 10 uM preincubated for 15 mins by HTRF assay
[21] = molecular target: Epidermal growth factor receptor (Homo sapiens) (UniProt P00533); experiment: Inhibition of recombinant EGFR at 10 uM preincubated for 15 mins by HTRF assay
Sequence of Epidermal growth factor receptor (Homo sapiens) (P00533 whole entry): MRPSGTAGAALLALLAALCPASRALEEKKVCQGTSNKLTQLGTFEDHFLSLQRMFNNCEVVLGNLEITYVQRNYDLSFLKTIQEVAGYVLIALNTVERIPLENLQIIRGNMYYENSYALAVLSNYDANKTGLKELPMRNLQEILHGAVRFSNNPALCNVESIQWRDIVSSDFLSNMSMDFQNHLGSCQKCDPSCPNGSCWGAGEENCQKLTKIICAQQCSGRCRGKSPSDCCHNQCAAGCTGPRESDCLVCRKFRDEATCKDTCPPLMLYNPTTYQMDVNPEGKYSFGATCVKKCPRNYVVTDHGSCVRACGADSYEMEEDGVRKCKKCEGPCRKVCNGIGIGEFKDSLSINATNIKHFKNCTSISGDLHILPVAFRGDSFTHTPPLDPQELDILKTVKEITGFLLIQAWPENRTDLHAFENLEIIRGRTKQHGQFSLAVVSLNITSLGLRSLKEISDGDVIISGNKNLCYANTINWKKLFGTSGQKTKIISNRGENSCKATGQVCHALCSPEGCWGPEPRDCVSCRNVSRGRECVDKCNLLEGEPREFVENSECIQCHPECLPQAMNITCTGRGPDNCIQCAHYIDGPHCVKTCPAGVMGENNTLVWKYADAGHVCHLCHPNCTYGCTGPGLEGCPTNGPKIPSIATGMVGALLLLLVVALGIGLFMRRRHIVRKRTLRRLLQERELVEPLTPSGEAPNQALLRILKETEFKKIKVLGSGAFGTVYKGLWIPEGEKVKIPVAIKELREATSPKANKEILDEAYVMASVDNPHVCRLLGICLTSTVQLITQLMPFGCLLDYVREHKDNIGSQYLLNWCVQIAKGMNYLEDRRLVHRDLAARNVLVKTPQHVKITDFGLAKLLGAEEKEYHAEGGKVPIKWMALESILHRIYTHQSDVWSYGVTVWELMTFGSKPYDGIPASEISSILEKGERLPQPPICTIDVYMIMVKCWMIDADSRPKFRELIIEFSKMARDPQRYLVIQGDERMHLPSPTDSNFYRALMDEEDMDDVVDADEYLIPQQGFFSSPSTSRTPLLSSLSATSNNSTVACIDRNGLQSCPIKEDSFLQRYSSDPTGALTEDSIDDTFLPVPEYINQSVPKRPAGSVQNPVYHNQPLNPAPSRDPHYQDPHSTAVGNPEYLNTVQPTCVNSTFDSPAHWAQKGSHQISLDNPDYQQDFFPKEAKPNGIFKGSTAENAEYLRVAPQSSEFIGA

[22] = Aqueous solubility of compound in water; type: physicochemical; details: buffer
[23] = Solubility of compound in 2 equimolar NaOH and distilled water; type: physicochemical; details: buffer
[24] = Solubility of compound in 3 equimolar NaOH and distilled water; type: physicochemical; details: buffer
[25] = Solubility of compound in 3 equimolar NaOH and 0.1 N NaHCO3 buffer; type: physicochemical

Structure (SMILES) | IC50 [1] | IC50 [2] | IC50 [3] | IC50 [4] | IC50 [5] | Residual activity [6] | IC50 [7] | Selectivity ratio [8] | IC50 [9] | IC50 [10] | also measured
O=C1Nc2ccc([N+](=O)[O-])cc2/C1=C1/Nc2ccc(F)cc2/C1=N/O | 0.94 µM | 0.64 µM | 0.57 µM | 0.46 µM | 0.92 µM | 90% | 0.91 µM | 6 | 0.00171 µM | 0.28 µM | –
COc1ccc2c(c1)C(=N/O)/C(=C1/C(=O)Nc3ccc([N+](=O)[O-])cc31)N2 | > 20 µM | > 20 µM | > 20 µM | > 20 µM | > 20 µM | – | > 20 µM | – | 2.95 µM | > 20 µM | inhibition [11]: inactive; inhibition [6]: inactive
O=C1Nc2ccc([N+](=O)[O-])cc2/C1=C1/Nc2ccc(Cl)cc2/C1=N/O | 1.16 µM | 1.25 µM | 15.6 µM | 0.56 µM | 1.11 µM | 90% | 0.51 µM | 8 | 0.0235 µM | 0.33 µM | inhibition [12]: inactive; inhibition [13]: inactive; inhibition [14]: inactive; inhibition [15]: inactive; inhibition [16]: inactive; inhibition [17]: inactive; inhibition [18]: inactive; inhibition [19]: inactive; inhibition [20]: inactive; inhibition [21]: inactive
O=C1Nc2ccc(OC(F)(F)F)cc2/C1=C1/Nc2ccc(F)cc2/C1=N/O | 1.89 µM | 3.95 µM | 19.9 µM | 1.53 µM | 3.81 µM | 90% | 4.12 µM | 6 | 0.0603 µM | 1.51 µM | –
O=Nc1c(-c2c(O)[nH]c3ccc([N+](=O)[O-])cc23)[nH]c2ccccc12 | – | – | – | – | – | – | – | – | 0.00735 µM | – | solubility [22]: Insoluble; solubility [23]: < 100 µg/mL; solubility [24]: < 100 µg/mL; solubility [25]: < 100 µg/mL
O=C1Nc2ccc(OC(F)(F)F)cc2/C1=C1/Nc2ccc(O)cc2/C1=N/O | 2.96 µM | 2.28 µM | 16.9 µM | 5.91 µM | 5.81 µM | 90% | 4.23 µM | – | 0.00832 µM | 2.25 µM | –
O=C1Nc2ccc(Cl)cc2/C1=C1/Nc2ccc(F)cc2/C1=N/O | 6.32 µM | 5.33 µM | > 20 µM | 7.14 µM | 9.11 µM | 90% | 7.13 µM | 6 | 0.00801 µM | 3.31 µM | –
Cc1ccc2c(c1)C(=N/O)/C(=C1/C(=O)Nc3ccc([N+](=O)[O-])cc31)N2 | 1.06 µM | 3.92 µM | > 20 µM | 0.81 µM | 2.11 µM | 90% | 1.06 µM | 7 | 0.00868 µM | 1.41 µM | –
O=C1Nc2ccc(F)cc2/C1=C1/Nc2ccc(Cl)cc2/C1=N/O | 2.28 µM | 3.62 µM | 18.9 µM | 14.7 µM | 3.62 µM | 90% | 3.52 µM | 6 | 0.0101 µM | 1.72 µM | –
O=C1Nc2ccc(F)cc2/C1=C1/Nc2ccc(O)cc2/C1=N/O | 2.11 µM | 0.68 µM | 4.09 µM | 1.42 µM | 4.62 µM | 90% | 2.61 µM | – | 0.00225 µM | 1.66 µM | –
O=C1Nc2ccc(Cl)cc2/C1=C1/Nc2ccc(O)cc2/C1=N/O | 5.14 µM | 2.92 µM | 16.4 µM | 12.2 µM | 10.2 µM | 90% | 10.7 µM | – | 0.00527 µM | 3.51 µM | –
COc1ccc2c(c1)C(=N/O)/C(=C1/C(=O)Nc3ccc(OC(F)(F)F)cc31)N2 | > 20 µM | > 20 µM | > 20 µM | > 20 µM | 20 µM | – | 13.2 µM | – | 8.62 µM | > 20 µM | Activity [11]: inactive; Activity [6]: inactive
O=C1Nc2ccc(Cl)cc2/C1=C1/Nc2ccc(Cl)cc2/C1=N/O | 2.57 µM | 12.2 µM | > 20 µM | 17.2 µM | 11.9 µM | 90% | 6.14 µM | 6 | 0.0111 µM | 1.86 µM | –
O=C1Nc2ccc([N+](=O)[O-])cc2/C1=C1/Nc2ccc(Br)cc2/C1=N/O | 1.14 µM | 1.45 µM | 16.9 µM | 0.77 µM | 1.16 µM | – | 0.95 µM | – | – | 0.45 µM | solubility [22]: Insoluble; solubility [23]: < 100 µg/mL; solubility [24]: < 100 µg/mL; solubility [25]: < 100 µg/mL
O=C1Nc2ccc(F)cc2/C1=C1/Nc2ccc(F)cc2/C1=N/O | 2.23 µM | 8.62 µM | 10.3 µM | 15.9 µM | 13.2 µM | 90% | 6.57 µM | 6 | 0.00183 µM | 13.5 µM | –
COc1ccc2c(c1)C(=N/O)/C(=C1/C(=O)Nc3ccc(F)cc31)N2 | 13.6 µM | 4.84 µM | 6.71 µM | 5.29 µM | > 20 µM | – | > 20 µM | – | 4.12 µM | 3.59 µM | Activity [11]: inactive; Activity [6]: inactive
Cc1ccc2c(c1)C(=N/O)/C(=C1/C(=O)Nc3ccc(OC(F)(F)F)cc31)N2 | > 20 µM | > 20 µM | > 20 µM | > 20 µM | 8.13 µM | 90% | 7.31 µM | – | – | > 20 µM | –
Cc1ccc2c(c1)C(=N/O)/C(=C1/C(=O)Nc3ccc(F)cc31)N2 | 11.5 µM | > 20 µM | > 20 µM | > 20 µM | 10.6 µM | 90% | 10.5 µM | – | – | > 20 µM | –
O=C1Nc2ccc(OC(F)(F)F)cc2/C1=C1/Nc2ccc(Cl)cc2/C1=N/O | 2.71 µM | 17.7 µM | > 20 µM | > 20 µM | 2.83 µM | – | 4.23 µM | 6 | 0.0762 µM | 3.79 µM | Activity [11]: inactive; Activity [6]: inactive
Cc1ccc2c(c1)C(=N/O)/C(=C1/C(=O)Nc3ccc(Cl)cc31)N2 | 12.7 µM | > 20 µM | > 20 µM | > 20 µM | 5.18 µM | 90% | 8.79 µM | – | – | 18.8 µM | –
